Entries after “also recorded” stand apart in the source; their conditions may differ.
Experiments:
DC-SIGN CRD = biological target: T1, DC-SIGN CRD (Homo sapiens, UniProt Q9NNX6); assay: Surface plasmon resonance (SPR) binding to immobilised DC-SIGN CRD
T1 construct: human DC-SIGN (Lys62-Ala404, from R§D Systems); purchased R&D Systems ('R§D Systems' [sic])
T1 sequence (Q9NNX6 62-404): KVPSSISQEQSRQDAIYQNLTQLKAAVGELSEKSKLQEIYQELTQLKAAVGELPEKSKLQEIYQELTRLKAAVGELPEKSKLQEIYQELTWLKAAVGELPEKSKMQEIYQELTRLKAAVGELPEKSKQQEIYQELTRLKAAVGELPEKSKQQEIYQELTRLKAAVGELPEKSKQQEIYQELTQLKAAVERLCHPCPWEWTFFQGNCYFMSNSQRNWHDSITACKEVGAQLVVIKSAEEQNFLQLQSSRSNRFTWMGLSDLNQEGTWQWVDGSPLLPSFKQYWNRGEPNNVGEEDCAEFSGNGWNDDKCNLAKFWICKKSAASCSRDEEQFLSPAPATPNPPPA
Protocol: SPR experiments were performed using a Biacore 3000. […] Biosensor assays were performed with HEPES-buffered saline (10 mM HEPES, 150 mM sodium chloride, pH 7.4) containing 0.005% surfactant P20 and 5 mM CaCl2 as a running buffer. All binding experiments were carried out at 25° C. with a constant flow rate of 20 μl/min. The different compounds dissolved in the running buffer (0.39 to 50 μM) were injected for 3 min, followed by a dissociation phase of 3 min. The sensor chip surface was regenerated after each experiment by injecting 10 μL of EDTA 0.5 M pH 8.0. A simple channel activated by EDC/NHS and deactivated with ethanolamine was used as control. The kinetic parameters were calculated using the BlAeval 4.1 software. Analysis was performed using the simple Langmuir binding model with separate ka/kd (kon/koff). The specific binding profiles were obtained after subtracting the response signal from the control channel and from blank-buffer injection. The fitting to each model was judged by the chi square value and randomness of residue distribution compared to the theoretical model (Langmuir binding 1:1).
The binding affinity of mannoside derivatives for the carbohydrate recognition domain (CRD) of DC-SIGN was assessed by surface plasmon resonance (SPR).
A CM5 sensor chip was functionalized with the DC-SIGN CRD, and increasing concentrations of the various compounds, mannan as a positive control and octaethyleneglycol (OEG) as a negative control, were injected over the chip surface. The association (kon) and dissociation (koff) rate constants and the resulting dissociation equilibrium constant (Kd=koff/kon) for each assessed compound were determined (see Table 1 hereunder).

[1] = Hydrodynamic diameter of micelles (Zetasizer Nano ZS); assay type: physicochemical; settings: in water at 0.5 mg/ml
Protocol: DiManinsatC24 was prepared according a procedure similar to that used for the preparation of TriDiManC24 except that: • pentacosanoic acid was replaced by 10,12-pentacosadiynoic acid, and • before the coupling with 10,12-pentacosadiynoic acid, the benzyl groups of compound 33 were replaced by acetyl group so as to provide compound 108 (as illustrated in FIG. 3E). ^1H NMR δ(ppm) (MeOD, 400 MHz) 4.87 (s, 3H), 4.73 (s, 3H), 3.64-3.50 (m, 14H), 3.46-3.20 (m, 76H), 2.97-2.93 (m, 6H), 2.33 (t, 6H, J=6.8 Hz), 2.09-1.96 (m, 6H), 1.08-1.05 (m, 32H), 0.66 (t, 3H, J=6.8 Hz). ^13C NMR δ (ppm) (MeOD, 100 MHz) 173.7, 168.8, 104.2, 101.2, 80.6, 80.4, 75.1, 74.7, 72.5, 72.2, 72.1, 71.9, 71.8, 71.7, 71.6, 71.4, 69.4, 69.1, 68.9, 68.7, 68.6, 68.0, 63.2, 63.1, 42.2, 37.0, 34.8, 33.7, 33.1, 30.8, 30.7, 30.6, 30.5, 30.4, 30.2, 29.5, 28.1, 27.0, 26.0, 23.7, 19.7, 14.4. IR (neat film, cm^−1): 3353, 2924, 1716, 1636, 1350, 1182, 1095, 1035, 1009, 837, 669. • Determination of critical micelle concentrations (CMCs) and size of particles. The hydrodynamic diameters of micelles of glycolipids were measured in water using a Zetasizer Nano ZS system (Malvern Instruments). The CMCs were measured using pyrene as an extrinsic fluorescent probe and were carried out as described (Perino et al., 2011). Briefly, a range of glycolipid samples were dissolved in water (1 ml), with concentrations ranging from 1.0 to 0.001 mg/ml. A stock solution of pyrene (1 mM) was prepared in dimethyl sulfoxyde and was added to each sample. Fluorescent emission of pyrene was measured at 25° C. using a Fluorolog spectrofluorometer (Jobin Yvon, Horiba). The intensities of fluorescence emission were determined at 374 nm (I374) and at 383 nm (I383), with an excitation at a 339 nm wavelength. The ratios I374/I383 were calculated and plotted against the glycolipid concentration. The CMC value was determined at the intersection of the two straight lines.

HIV-1 R5 = HIV-1 R5 trans-infection of MAGI-CCR5 cells mediated by DCs; assay type: cell-based; settings: for inhibition of HIV-1 trans-infection (in words): HIV-1 R5 where stated; for IC50: Human immunodeficiency virus 1, MAGI-CCR5, read-out: IC50 of HIV-1 trans-infection
Protocol: ManC1, […] (comparative) and compounds of the invention (ManC24, ManC17, TriManC24, TriDiManC24, TriManinsatC24 and ManinsatC24) were serially diluted in water. Human DCs (1×10^5 in 200 μl ) were pre-treated with different concentrations of compounds, or mannan (Sigma) or culture medium alone, in RPMI 1640 medium containing 10% FBS for 45 min at 37° C., prior infection with HIV-1 (100 ng of p24Gag) for 3 h. Excess free virus and molecules were removed by three washes. DCs were then cocultured with MAGI -CCR5 cells (1×10^5) at 37° C. plated in a 48-well plate. After two days, viral infection of MAGI-CCR5 cells was quantitated following beta-galactosidase assays and enumerating blue cells by light microscopy.
The IC50 were determined by serial dilution of each compound. The trans-infection assays were repeated a minimum of three times, and the IC50 determined using KaleidaGraph.
To investigate the ability of the compounds of the invention to inhibit HIV-1 trans infection, we chose to infect human DCs in order to best mimic in vivo conditions. Human DCs were exposed to different compounds (namely, Mannan (control), ManC1 (comparative), ManC11 (comparative), ManC17, ManC24, TriManC24, TriDiManC24, ManinsatC24 and TriManinsatC24) for 45 min at 37° C., before inoculation with HIV-1 (strains R5 and X4) for 3 hours. After extensive washings to remove unbound virions and mannosides, DCs were then co-cultured with MAGI-CCR5 cells. This procedure allows precise quantification of HIV-1 replication in reporter MAGI-CCR5 cells by detection of beta-galactosidase activity. These cells express an integrated copy of the HIV long terminal repeat (LTR) fused to the beta-galactosidase reporter gene, and express the CD4 receptor and the CCR5 and CXCR4 co-receptors, required for entry of HIV-1 R5 and X4 respectively. Upon viral entry leading to viral Tat expression and activation of the LTR, these cells permit quantification of HIV trans-infection after two days.

Compound | binding to DC-SIGN CRD (in words) (DC-SIGN CRD) | Kon (M^−1 · s^−1) (DC-SIGN CRD; 25° C., Langmuir 1:1) | hydrodynamic diameter of micelles [1] | inhibition of HIV-1 trans-infection (in words) (HIV-1 R5) | IC50 (HIV-1 R5) | koff (DC-SIGN CRD; 25° C., Langmuir 1:1) | kon (DC-SIGN CRD; 25° C., Langmuir 1:1) | KD (μM) (DC-SIGN CRD; Kd=koff/kon)
CCCCCCCCCCCCCCCCCC(=O)NCCOCCOCCOCC(=O)NCCOCCOCCOCCOC1OC(CO)C(O)C(O)C1O (stereo not drawn) [ManC17] | bound with a low affinity | Low binding | 17 nm | reduced trans-infection in a dose -dependent manner; also recorded: able to inhibit trans-infection to a similar extent; also recorded: inhibited in a dose -dependent manner | 120 µM | – | – | –
mannan [reference compound] | bound efficiently | – | – | – | – | – | – | –
CCCCCCCCCCCCCCCCCCCCCCCCC(=O)NCCOCCOCCOCC(=O)NCCOCCOCCOCCOC1OC(CO)C(O)C(O)C1O (stereo not drawn) [ManC24] | – | – | 17 nm | reduced trans-infection in a dose -dependent manner; also recorded: able to inhibit trans-infection to a similar extent; also recorded: inhibited in a dose -dependent manner | 120 µM | 9e-05 s⁻¹ | 273 M⁻¹ s⁻¹ | sub-micromolar range
